Assay results as given in ChEMBL document CHEMBL1201862, “PubChem BioAssay data set” (2004).
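Growth conditions: 96-well plates. Treatment: test compound, 48 hours, 5 concentrations. Analysis: linear interpolation between bracketing concentrations; unreached endpoints set to highest concentration. GI50: concentration for 50% inhibition of growth.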 Calls of active or inactive are those of the source. Cut-off read from the data, not from the text of the source: active = GI50 up to about 1.1 µM and inactive = higher.

Legend:
Assay in all cases: growth of human tumour cells (NCI), 48 h
LOX IMVI = test system: LOX IMVI
SR = test system: SR
HT-29 = test system: HT-29
UO-31 = test system: UO-31
OVCAR-4 = test system: OVCAR-4
HCT-15 = test system: HCT-15
RPMI-8226 = test system: RPMI-8226
U-251 = test system: U-251
MDA-MB-231 = test system: MDA-MB-231
KM12 = test system: KM12
IGROV-1 = test system: IGROV-1
MDA-N = test system: MDA-N
SK-MEL-5 = test system: SK-MEL-5
SN12C = test system: SN12C
OVCAR-5 = test system: OVCAR-5
A549 = test system: A549
BT-549 = test system: BT-549
HOP-62 = test system: HOP-62
UACC-62 = test system: UACC-62
OVCAR-8 = test system: OVCAR-8
HOP-92 = test system: HOP-92
Hs-578T = test system: Hs-578T
MCF7 = test system: MCF7
CAKI-1 = test system: CAKI-1
EKVX = test system: EKVX
M14 = test system: M14
COLO 205 = test system: COLO 205
ACHN = test system: ACHN
SF-539 = test system: SF-539
CCRF-CEM = test system: CCRF-CEM
DU-145 = test system: DU-145
NCI-H23 = test system: NCI-H23
MOLT-4 = test system: MOLT-4
HCC 2998 = test system: HCC 2998
NCI/ADR-RES = test system: NCI/ADR-RES
HCT-116 = test system: HCT-116
MDA-MB-435 = test system: MDA-MB-435
SK-MEL-28 = test system: SK-MEL-28
SF-295 = test system: SF-295
SK-MEL-2 = test system: SK-MEL-2
TK-10 = test system: TK-10
786-0 = test system: 786-0
RXF 393 = test system: RXF 393
Malme-3M = test system: Malme-3M
NCI-H226 = test system: NCI-H226
K562 = test system: K562
T47D = test system: T47D
SK-OV-3 = test system: SK-OV-3
SNB-19 = test system: SNB-19
A498 = test system: A498
NCI-H522 = test system: NCI-H522
PC-3 = test system: PC-3
SF-268 = test system: SF-268
UACC-257 = test system: UACC-257
OVCAR-3 = test system: OVCAR-3
NCI-H460 = test system: NCI-H460
SW-620 = test system: SW-620
SNB-75 = test system: SNB-75
HL-60 = test system: HL-60

Measured: GI50

C/C(=N\Nc1nc2ccccc2s1)c1cccc[n+]1[O-]
inactive: LOX IMVI 48.6 µM | SR 23.9 µM | HT-29 41.5 µM | UO-31 20 µM | OVCAR-4 86.3 µM | RPMI-8226 41.1 µM | U-251 47 µM | MDA-MB-231 49.9 µM | KM12 30.1 µM | IGROV-1 21.7 µM | MDA-N 76.2 µM | SK-MEL-5 32.8 µM | SN12C 48.9 µM | OVCAR-5 2.33 µM | A549 42.8 µM | BT-549 > 100 µM | HOP-62 48.3 µM | UACC-62 50.1 µM | OVCAR-8 30.2 µM | HOP-92 13.5 µM | Hs-578T > 100 µM | MCF7 23.2 µM | CAKI-1 32.4 µM | EKVX 2.33 µM | M14 32.2 µM | COLO 205 32.2 µM | ACHN 37.1 µM | SF-539 45.1 µM | CCRF-CEM 25.2 µM | DU-145 > 100 µM | NCI-H23 47.3 µM | MOLT-4 1.81 µM | NCI/ADR-RES 29.7 µM | HCT-116 7.55 µM | MDA-MB-435 99.1 µM | SK-MEL-28 > 100 µM | SK-MEL-2 > 100 µM | TK-10 17 µM | 786-0 47.1 µM | RXF 393 66.2 µM | NCI-H226 55.2 µM | K562 31.4 µM | T47D 30.8 µM | SK-OV-3 37.4 µM | SNB-19 > 100 µM | A498 > 100 µM | NCI-H522 26.7 µM | PC-3 33 µM | SF-268 36.2 µM | UACC-257 40.1 µM | OVCAR-3 24.8 µM | NCI-H460 46.2 µM | SW-620 32.7 µM
34.2 µM: HCT-15
active: HCC 2998 0.0252 µM | SF-295 0.594 µM | Malme-3M 1.09 µM

Cn1c(-c2ccccc2)cc(-c2ccsc2)c1-c1ccsc1
> 100 µM: HCT-15
inactive: LOX IMVI > 100 µM | SR 9.66 µM | HT-29 67.3 µM | UO-31 > 100 µM | OVCAR-4 > 100 µM | RPMI-8226 > 100 µM | U-251 > 100 µM | MDA-MB-231 > 100 µM | KM12 > 100 µM | IGROV-1 > 100 µM | MDA-N > 100 µM | SK-MEL-5 > 100 µM | SN12C > 100 µM | OVCAR-5 > 100 µM | A549 > 100 µM | BT-549 > 100 µM | HOP-62 49.5 µM | SNB-75 > 100 µM | UACC-62 > 100 µM | OVCAR-8 > 100 µM | HOP-92 > 100 µM | Hs-578T > 100 µM | HL-60 53.2 µM | MCF7 > 100 µM | CAKI-1 > 100 µM | EKVX > 100 µM | M14 > 100 µM | COLO 205 > 100 µM | ACHN > 100 µM | SF-539 95.5 µM | CCRF-CEM 50 µM | DU-145 > 100 µM | NCI-H23 > 100 µM | MOLT-4 > 100 µM | HCC 2998 > 100 µM | NCI/ADR-RES > 100 µM | HCT-116 55.5 µM | MDA-MB-435 > 100 µM | SK-MEL-28 > 100 µM | SF-295 > 100 µM | SK-MEL-2 > 100 µM | TK-10 > 100 µM | 786-0 > 100 µM | RXF 393 33.3 µM | NCI-H226 6.81 µM | K562 > 100 µM | T47D > 100 µM | SK-OV-3 95.7 µM | SNB-19 17.2 µM | A498 > 100 µM | PC-3 > 100 µM | SF-268 > 100 µM | UACC-257 > 100 µM | OVCAR-3 34.3 µM | NCI-H460 > 100 µM | SW-620 > 100 µM

Clc1nc(NC23CC4CC(CC(C4)C2)C3)nc(NC23CC4CC(CC(C4)C2)C3)n1
inactive: LOX IMVI > 100 µM | SR 29 µM | HT-29 66.1 µM | UO-31 23.4 µM | OVCAR-4 83 µM | RPMI-8226 19.1 µM | U-251 26.7 µM | MDA-MB-231 > 34.3 µM | KM12 41.2 µM | IGROV-1 > 100 µM | MDA-N 46.8 µM | SK-MEL-5 47.3 µM | SN12C > 83.4 µM | OVCAR-5 > 100 µM | A549 43.9 µM | BT-549 > 61.4 µM | HOP-62 44.2 µM | SNB-75 18 µM | UACC-62 > 100 µM | OVCAR-8 70.1 µM | HOP-92 17.3 µM | Hs-578T 25 µM | HL-60 19.9 µM | MCF7 12.6 µM | CAKI-1 > 100 µM | EKVX > 89.9 µM | M14 73.1 µM | COLO 205 > 67.3 µM | ACHN > 34.8 µM | SF-539 > 75.9 µM | CCRF-CEM 17 µM | DU-145 56.6 µM | NCI-H23 38.5 µM | MOLT-4 17.5 µM | HCC 2998 53.5 µM | NCI/ADR-RES 46 µM | HCT-116 15.6 µM | MDA-MB-435 92.3 µM | SK-MEL-28 > 100 µM | SF-295 16.4 µM | SK-MEL-2 19.3 µM | TK-10 > 100 µM | 786-0 52.5 µM | RXF 393 17.9 µM | Malme-3M > 100 µM | NCI-H226 97.9 µM | K562 4.62 µM | T47D 10.5 µM | SK-OV-3 > 76.6 µM | SNB-19 > 100 µM | A498 > 100 µM | PC-3 1.41 µM | SF-268 > 83.4 µM | UACC-257 50.7 µM | OVCAR-3 50.8 µM | NCI-H460 61 µM | SW-620 62.4 µM
34.7 µM: HCT-15

Clc1ccc(C2=NN=C3C(c4ccccc4)=Nc4ccccc4N3C2)cc1
active: SR 1.08 µM | MOLT-4 0.957 µM
inactive: LOX IMVI 3.76 µM | HT-29 3.01 µM | UO-31 3.72 µM | OVCAR-4 2.01 µM | RPMI-8226 2.63 µM | U-251 5.46 µM | MDA-MB-231 32.7 µM | KM12 6.82 µM | IGROV-1 7.87 µM | MDA-N 7.03 µM | SK-MEL-5 3.27 µM | SN12C 20.9 µM | A549 13.5 µM | BT-549 12.1 µM | HOP-62 10.8 µM | UACC-62 5.3 µM | OVCAR-8 4.05 µM | HOP-92 > 25.1 µM | Hs-578T 2.09 µM | HL-60 2.56 µM | MCF7 4.4 µM | CAKI-1 7.19 µM | EKVX 4.97 µM | M14 2.79 µM | COLO 205 5.68 µM | ACHN 7.06 µM | SF-539 19.3 µM | CCRF-CEM 2.03 µM | DU-145 1.91 µM | NCI-H23 16.3 µM | HCC 2998 17.9 µM | NCI/ADR-RES 4.48 µM | HCT-116 4.17 µM | MDA-MB-435 4.72 µM | SK-MEL-28 37.5 µM | SF-295 11.1 µM | SK-MEL-2 17.7 µM | TK-10 3.89 µM | 786-0 5.28 µM | RXF 393 1.48 µM | Malme-3M 5.45 µM | NCI-H226 6.52 µM | K562 2.88 µM | T47D 1.45 µM | SK-OV-3 > 74.8 µM | SNB-19 11.7 µM | A498 56.1 µM | NCI-H522 2.75 µM | PC-3 8.61 µM | SF-268 2.88 µM | UACC-257 5.73 µM | OVCAR-3 2.02 µM | NCI-H460 1.38 µM | SW-620 5.45 µM
4.73 µM: HCT-15

O=C(N[C@H]1c2ccsc2/C(=N/O)[C@H]1O)C(F)(F)F
inactive: LOX IMVI > 100 µM | SR > 100 µM | HT-29 > 100 µM | UO-31 > 100 µM | U-251 > 100 µM | MDA-MB-231 > 10 µM | IGROV-1 > 100 µM | MDA-N > 100 µM | SK-MEL-5 > 100 µM | SN12C > 100 µM | OVCAR-5 > 100 µM | A549 > 100 µM | BT-549 > 100 µM | HOP-62 > 100 µM | SNB-75 > 100 µM | UACC-62 > 100 µM | OVCAR-8 > 100 µM | HOP-92 > 100 µM | Hs-578T > 100 µM | HL-60 > 100 µM | MCF7 > 100 µM | CAKI-1 > 100 µM | EKVX > 100 µM | M14 > 100 µM | COLO 205 > 100 µM | SF-539 > 100 µM | CCRF-CEM > 100 µM | DU-145 > 100 µM | NCI-H23 > 100 µM | MOLT-4 > 100 µM | HCC 2998 > 100 µM | NCI/ADR-RES > 100 µM | HCT-116 > 100 µM | MDA-MB-435 > 100 µM | SK-MEL-28 > 100 µM | SF-295 > 100 µM | SK-MEL-2 > 100 µM | TK-10 > 100 µM | RXF 393 > 100 µM | Malme-3M > 100 µM | NCI-H226 > 100 µM | K562 > 100 µM | T47D > 100 µM | SK-OV-3 > 100 µM | SNB-19 > 100 µM | A498 > 100 µM | PC-3 > 100 µM | SF-268 > 100 µM | UACC-257 > 100 µM | OVCAR-3 > 100 µM | NCI-H460 > 100 µM | SW-620 > 100 µM
> 100 µM: HCT-15
